In patent publication US20170173106A1, “Polypeptide Fragments of 168A-T2 and Compositions Comprising Them for Use in Treating Cancer” (GENE SIGNAL INTERNATIONAL SA, priority 2014, published 2017):

Experiments:
[1] = system: endostatin; assay: Endostatin production by HUVECs (ELISA); assay type: cell-based, human; conditions: rising concentrations; 48 hrs
Method: HUVECs were transfected with siRNA using transfecting agent GENJET according to the manufacturer's instructions. After 48 hrs of incubation, supernatants were collected, protein expression tested by western blots and endostatin quantified.
Endostatin levels were quantified by ELISAs on lysates of HUVECs incubated at rising concentrations of P3 or PCT for 48 hrs.
In order to evaluate the role of metalloproteinases (MMPs) in endostatin production, a polyvalent inhibitor of MMPs, GM6001 was used. The concentration of endostatin in supernatants is at 6.2 ng/mg of protein of the lysates/48 hrs. […] GM6001 inhibits endostatin production induced by P3. MMPs might then be implicated in endostatin production induced by P3.
HUVECs were incubated for 48 hrs in an EGM2-MV media with an anti-CD151 antibody (11G5a) or an irrelevant antibody (negative control unable to recognize any protein). Then endostatin levels were measured by ELISA in supernatants.
HUVECs cells were transfected with specific siRNA of CD151 and CD9. Protein expression was analyzed in western blots. In parallel, endostatin levels were measured by ELISA in supernatants. […] Levels of endostatin in supernatant of HUVECs cells transfected with siRNA were measured. […] On the contrary, levels of endostatin increased at 9.4 ng/mg of protein lysates/48 hrs in HUVECs depleted in CD151 (FIG. 18B). CD151 is thus involved in the production of endostatin.

[2] = system: HUVECs; assay: Cellular proliferation test (MTT) on HUVECs; assay type: cell-based, human; conditions: 48 h
Method: Evaluation of cellular proliferation was performed using 4,5-diMethylThiazol-2-yl)-2,5 diphenylTetrazolium bromide (MTT) test. After 18 hrs of culture, the media was changed by EBM2 supplemented with gentamycine and 5% SVF. Different concentrations of peptides were added under a volume of 10 μL/well. Cells were incubated for 48 hrs at 37° C. MTT was added (50 μL/well) to the cells for 3 hrs.
Cells were grown for 48 h in EGM2-MV and proliferation was quantified by MTT assay.

[3] = target: T1, CD9P-1-CD151 complex (Homo sapiens, UniProt P48509+Q9P2B2); assay: Immunoprecipitation in HUVECs: CD9P-1 with CD151; assay type: cell-based; conditions: 33 μM; 2 hrs
T1 construct: endogenous in cells; host or cells: HUVEC
T1 sequence (Q9P2B2 26-879): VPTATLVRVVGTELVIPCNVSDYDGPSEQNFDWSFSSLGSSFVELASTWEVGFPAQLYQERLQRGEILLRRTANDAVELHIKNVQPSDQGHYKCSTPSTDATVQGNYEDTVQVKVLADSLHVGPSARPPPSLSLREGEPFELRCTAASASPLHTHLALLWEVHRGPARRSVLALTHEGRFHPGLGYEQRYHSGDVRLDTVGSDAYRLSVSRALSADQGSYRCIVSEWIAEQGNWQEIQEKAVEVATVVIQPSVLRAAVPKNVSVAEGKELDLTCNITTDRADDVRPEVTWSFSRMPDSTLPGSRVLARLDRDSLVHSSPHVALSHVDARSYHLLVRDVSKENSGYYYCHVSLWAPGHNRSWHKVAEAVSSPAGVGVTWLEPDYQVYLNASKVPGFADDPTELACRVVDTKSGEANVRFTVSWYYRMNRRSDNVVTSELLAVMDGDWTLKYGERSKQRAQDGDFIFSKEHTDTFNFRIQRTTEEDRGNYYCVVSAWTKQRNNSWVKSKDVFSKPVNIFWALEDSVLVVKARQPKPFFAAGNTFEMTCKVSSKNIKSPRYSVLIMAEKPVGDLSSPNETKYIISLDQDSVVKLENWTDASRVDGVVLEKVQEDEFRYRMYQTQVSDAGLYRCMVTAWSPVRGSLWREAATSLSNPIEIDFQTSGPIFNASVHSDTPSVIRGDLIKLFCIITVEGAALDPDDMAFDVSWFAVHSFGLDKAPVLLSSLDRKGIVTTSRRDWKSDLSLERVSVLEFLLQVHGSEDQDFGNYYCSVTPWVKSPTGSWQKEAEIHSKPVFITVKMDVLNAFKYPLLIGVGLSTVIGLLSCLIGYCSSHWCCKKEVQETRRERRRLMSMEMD
T1 sequence (P48509 1-253): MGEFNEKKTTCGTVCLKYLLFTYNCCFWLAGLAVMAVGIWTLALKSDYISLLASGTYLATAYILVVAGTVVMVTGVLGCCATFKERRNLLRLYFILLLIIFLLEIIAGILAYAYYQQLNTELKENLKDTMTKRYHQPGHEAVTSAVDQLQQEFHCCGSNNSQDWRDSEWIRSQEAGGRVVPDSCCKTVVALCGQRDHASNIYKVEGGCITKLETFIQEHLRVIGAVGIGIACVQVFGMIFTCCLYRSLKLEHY
Method: FIG. 13 is a photograph representing the dissociation of CD9-CD9P-1, CD9P-1-CD151 and CD9-CD151 complexes by P3 in HUVECs. HUVECs incubated for 2 h with 33 μM P3, PCT or solvent in EGM2-MV medium were lysed in brij 97 buffer, then CD81, CD9 or CD151 were immunoprecipitated with the corresponding antibody. Line A: Western blot results obtained with anti-CD9P-1 antibody from immunoprecipitated CD81, CD9 and CD151. Line B: Western blot results obtained with anti-CD9 antibody from immunoprecipitated CD81, CD9 and CD151. Line C: Western blot results obtained with anti-CD151 antibody from immunoprecipitated CD81, CD9 and CD151. PCT: control peptide. IP: immunoprecipitation.
To study more precisely the effect of P3 on the associations of tetraspanins CD9, CD81, and CD151 between them and with CD9P-1, immunoprecipitation (IP) experiments were performed. In the control experiment (with the solvent), CD9P-1 co-precipitated with CD9 and CD81. A weak co-precipitation was observed between […] and CD151. The associations between tetraspanins and CD9P-1 are not modified under PCT condition. However, the interactions between CD9P-1 and CD9 and between CD9P-1 and CD151 are decreased while the HUVECs are incubated for 2 hrs with 33 μM of P3. The association between CD9P-1 and CD81 is not modified by P3 (FIG. 13A).

- interaction between CD9P-1 and CD151 [3]: not modified
Sequence: NQKGCYDLVT (control peptide) [PCT]
- level of endostatin compared to the solvent condition [1]: does not modify the level of endostatin
- effect on HUVECs proliferation [2]: No effect
